# Test results from patent US20120309706A1, “COMBINED TREATMENT OF PANCREATIC CANCER WITH GEMCITABINE AND MASITINIB” (AB SCIENCE, priority 2010, published 2012).
# Like-named read-outs stand apart in the source and are kept apart here. Marks after values point to notes of the source that are not given here.
# Tests used:
# Panc-1 = assay: WST-1 proliferation/survival assay, Panc-1; type: cell-based; conditions: Homo sapiens
# Protocol: (§1) Sensitivity of pancreatic tumour cell lines to masitinib or gemcitabine as single agents, or in combination, was assessed using WST-1 proliferation assays. Four cell lines were tested for their sensitivity to masitinib (A) or gemcitabine (B). […] (D) Sensitivity of resistant Mia Paca-2 cells to various tyrosine kinase inhibitors alone (top) or in combination with gemcitabine (bottom) was analyzed in WST-1 proliferation assays.
# (§2) Pancreatic cancer cells lines (Mia Paca-2, Panc-1, BxPC-3 and Capan-2) were obtained from Dr. Juan Iovanna (Inserm, France). Cells were maintained in RPMI (BxPC-3, Capan-2) or DMEM (Mia Paca-2, Panc-1) medium containing glutamax-1 (Lonza), supplemented with 100 U/ml penicillin/100 μg/ml streptomycin, and 10% foetal calf serum (FCS) (AbCys, Lot S02823S1800). Expression of tyrosine kinases was determined by RT-PCR using Hot Star Taq (Qiagen GmbH, Hilden, Germany) in a 2720 Thermal Cycler (Applied Biosystems).
# (§3) Cytotoxicity of masitinib and gemcitabine was assessed using a WST-1 proliferation/survival assay (Roche diagnostic) in growth medium containing 1% FCS. Treatment was started with the addition of the respective drug. […] After 72 hours WST-1 reagent was added and incubated with the cells for 4 hours before absorbance measurement at 450 nm in an EL800 Universal Microplate Reader (Bio-Tek Instruments Inc.). Media alone was used as a blank and proliferation in the absence of compounds served as positive control. Results are representative of three/four experiments. The masitinib sensitisation index is the ratio of the IC50 of gemcitabine against the IC50 of the drug combination.
# Mia Paca-2 cells [1] = assay: Gene expression profiling (Affymetrix U133 Plus 2.0 microarrays) and pathway analysis; type: cell-based, human; conditions: for down-regulated genes / up-regulated genes: fold-change threshold of 2; for deregulated genes: fold-change threshold of 2, treated/untreated; for deregulated genes specific to the treatment: pathway analysis, Ingenuity
# Protocol: Gene expression profiling of cell lines (from 2 μg RNA) was assessed using whole-genome Affymetrix U133 Plus 2.0 human oligonucleotide microarrays. Generation of expression matrices, data annotation, filtering and processing have been previously described [Giroux V et al., 2006 Clin Cancer Res 12: 235-241]. Microarray statistics and cluster analysis were performed by the Robust Multichip Average method in R using Bioconductor and using the Cluster and TreeView programs. Drug response signatures were generated by differential analysis, which compared the expression profile of each treated cell line with that of the untreated cell line by measuring the fold-change (treated/untreated) of each probe set. The lists of differential genes were interrogated using the Ingenuity Pathway Analysis software (Version 5.5.1-1002; Ingenuity Systems, Redwood City, Calif.) with a significance threshold for the corrected p-value<0.05. MIAME compliant array data can be accessed at (www.ebi.ac.uk/arrayexpress) using the accession number GSE17987.
# Whole-genome clustering of the four cell samples sorted them into two opposite clusters (data not shown). The two treatment conditions with gemcitabine clustered together (left cluster), whereas cells treated with masitinib alone clustered with the untreated cells (right cluster). […] This was confirmed by the differential analysis of expression profile. […] These drug response expression signatures were characterised via pathway analysis using Ingenuity software. […] This pathway is involved in pancreatic development and re-activation of this signalling system has been implicated in pancreatic carcinoma with reported nuclear localisation of the downstream effector β-catenin. […] Three other pathways altered to a lesser extent included: ERK/MAPK Signalling, CDK5 Signalling, and PI3K/AKT Signalling (p=0.016, 0.025, 0.039, respectively).
# Mia Paca-2 = assay: WST-1 proliferation/survival assay, Mia Paca-2; type: cell-based, human; conditions: for IC50: Homo sapiens; for response of Mia Paca-2 cells to gemcitabine after pre-incubation with TKI: 10 μM imatinib or dasatinib, compared to masitinib
# Protocol: as §1, §2, §3
# Comparison of masitinib to other TKIs for their potential to sensitize gemcitabine-resistant pancreatic cancer cells: Similar TKI plus gemcitabine combination experiments to those described above were performed with gemcitabine-resistant Mia Paca-2 cells to compare masitinib with imatinib (Gleevec™, STI-571; Novartis, Basel, Switzerland), a TKI targeting ABL, PDGFR, and c-Kit); and dasatinib (Sprycel, Bristol-Myers Squibb), a TKI targeting SRC, ABL, PDGFR, and c-Kit.
# Capan-2 = assay: WST-1 proliferation/survival assay, Capan-2; type: cell-based, human; conditions: Capan-2, single agent, 1% FCS
# Protocol: as §1, §2, §3
# pancreatic cancer = conditions: cited from earlier work
# [2] = system: Mia Paca-2 pancreatic tumours; assay: Nog-SCID mouse model of human pancreatic cancer; type: in vivo, Nog-SCID mice; conditions: for Tumour volume, Median: following 28 days of treatment (day 56)
# Protocol: Mia Paca-2 tumour cells (10^7) were injected into the flank of Nog-SCID mice. Treatment was initiated 28 days after tumour cell injection. The different groups were treated with either: twice weekly injections of gemcitabine (i.p. 50 mg/kg), daily oral masitinib (100 mg/kg), water (control), or combined daily oral masitinib (100 mg/kg) and twice weekly injections of gemcitabine. Mice were treated for 56 days.
# Male Nog-Scid mice (7 weeks old) were obtained from internal breeding and were housed under specific pathogen-free conditions at 20±1° C. in a 12-hour light/12-hour dark cycle and ad libitum access to food and filtered water. Mia Paca-2 cells were cultured as described above. At day 0 (D0), mice were injected with 107 Mia Paca-2 cells in 200 μl PBS into the right flank. Tumours were allowed to grow for 1.5 to 4 weeks until the desired tumour size was reached (˜200 mm3). At day 28, animals were allocated into four treatment groups (n=7 to 8 per group), ensuring that each group's mean body weight and tumour volume were well matched, and treatment was initiated for a duration of 4 to 5 weeks. Treatments consisted of either: a) daily sterile water for the control group, b) an intraperitoneal (i.p.) injection of 50 mg/kg gemcitabine twice a week, c) daily gavage with 100 mg/kg masitinib, or d) combined i.p injection of 50 mg/kg gemcitabine twice a week and daily gavage with 100 mg/kg masitinib. Tumour size was measured with callipers and tumour volume was estimated using the formula: volume=(length×width2)/2. The tumour growth inhibition ratio was calculated as (100)×(median tumour volume of treated group)/(median tumour volume of control group).
# Relative changes in tumour volumes were compared between treatment groups using a variance analysis (ANOVA). Normality of relative changes in tumour volumes between day 28 and day 56 was first tested using the Shapiro-Wilk test of normality. […]
# The tumour size was monitored every 7 days until day 56, after which time the animals were sacrificed.
# BxPC-3 = assay: WST-1 proliferation/survival assay, BxPC-3; type: cell-based, human; conditions: BxPC-3, single agent, 1% FCS
# Protocol: as §1, §2
# Cytotoxicity of masitinib and gemcitabine was assessed using a WST-1 proliferation/survival assay (Roche diagnostic) in growth medium containing 1% FCS. Treatment was started with the addition of the respective drug. […] After 72 hours WST-1 reagent was added and incubated with the cells for 4 hours before absorbance measurement at 450 nm in an EL800 Universal Microplate Reader (Bio-Tek Instruments Inc.). […]
# FAK = FAK (Homo sapiens, UniProt Q05397); assay: FAK activity, preliminary in vitro data; type: biochemical
# Description: Altogether, this could provide a mechanism of action for masitinib on pancreatic cancer through the reduction of tumour progression or the inhibition of mast cell migration and activation, or both.
# Mia Paca-2 cells [3] = assay: In vitro tyrosine phosphorylation assay (western blot, anti-pTyr); type: cell-based, human; conditions: 6 hours, at 1 μM and beyond
# Protocol: (A) Messenger RNA expression of various receptor and cytoplasmic tyrosine kinases was analyzed by RT-PCR. Universal human reference total RNA was used as positive control for primers and the ubiquitous β-glucoronidase (GUS) served as an internal control for all RT-PCR reactions. (B) Tyrosine phosphorylation of proteins in response to masitinib. Mia Paca-2 cells (5×10^6) were treated for 6 hours at 37° C. with various concentrations of masitinib. Total cell lysates were prepared and tyrosine phosphorylation was analyzed by western blot with antibodies against phosphotyrosine (anti-pTyr). […] MW=molecular weight. […] Proteins (20 μg) were resolved by SDS-PAGE 10%, followed by western blotting and immunostaining. The following primary antibodies were used: rabbit anti-phospho-GRB2 antibody (sc-255 1:1000, Santa Cruz, Calif.), and anti-phosphotyrosine antibody (4G10 1:1000, Cell Signalling Technology, Ozyme, France). […] Immunoreactive bands were detected using enhanced chemiluminescent reagents (Pierce, USA). To estimate the range of masitinib concentration necessary to sensitize pancreatic tumor cell lines to chemotherapy, we assessed the ability of masitinib to block protein tyrosine phosphorylation by western blot analysis in cell lysates. […]
# [4] = Masitinib clearance half-life; conditions: human, in vivo
# Description: At the cut-off date for safety (17 Oct. 2008), all 22 patients enrolled had experienced at least one dose of masitinib. […] One patient reported a masitinib-related grade 4 neutropenia. The most common masitinib-related, haematological grade 3 AEs were anaemia (22.7%), lymphopenia (22.7%), neutropenia (18.2%) and leucopoenia (18.2%). The most common, masitinib-related, non-haematological grade 3 AE was asthenia (13.6% of patients). […] One patient's death was reported to be due to several AEs (two syncopes, severe abdominal pain, hypotension, grade 2 anemia, acute renal failure and respiratory distress syndrome) and was suspected to be related to masitinib at the time of occurrence. However, masitinib had been interrupted for 6 days before these fatal AEs occurred. […] Thus, the death of this patient is most unlikely related to masitinib. Four other deaths occurred during this study but none were suspected to be treatment related.
# [5] = Panc-1, single agent, 72 hours, 1% FCS, read-out: IC50
# [6] = Mia Paca-2, single agent, 72 hours, 1% FCS, read-out: IC50
# Sequence of FAK (Q05397 whole entry): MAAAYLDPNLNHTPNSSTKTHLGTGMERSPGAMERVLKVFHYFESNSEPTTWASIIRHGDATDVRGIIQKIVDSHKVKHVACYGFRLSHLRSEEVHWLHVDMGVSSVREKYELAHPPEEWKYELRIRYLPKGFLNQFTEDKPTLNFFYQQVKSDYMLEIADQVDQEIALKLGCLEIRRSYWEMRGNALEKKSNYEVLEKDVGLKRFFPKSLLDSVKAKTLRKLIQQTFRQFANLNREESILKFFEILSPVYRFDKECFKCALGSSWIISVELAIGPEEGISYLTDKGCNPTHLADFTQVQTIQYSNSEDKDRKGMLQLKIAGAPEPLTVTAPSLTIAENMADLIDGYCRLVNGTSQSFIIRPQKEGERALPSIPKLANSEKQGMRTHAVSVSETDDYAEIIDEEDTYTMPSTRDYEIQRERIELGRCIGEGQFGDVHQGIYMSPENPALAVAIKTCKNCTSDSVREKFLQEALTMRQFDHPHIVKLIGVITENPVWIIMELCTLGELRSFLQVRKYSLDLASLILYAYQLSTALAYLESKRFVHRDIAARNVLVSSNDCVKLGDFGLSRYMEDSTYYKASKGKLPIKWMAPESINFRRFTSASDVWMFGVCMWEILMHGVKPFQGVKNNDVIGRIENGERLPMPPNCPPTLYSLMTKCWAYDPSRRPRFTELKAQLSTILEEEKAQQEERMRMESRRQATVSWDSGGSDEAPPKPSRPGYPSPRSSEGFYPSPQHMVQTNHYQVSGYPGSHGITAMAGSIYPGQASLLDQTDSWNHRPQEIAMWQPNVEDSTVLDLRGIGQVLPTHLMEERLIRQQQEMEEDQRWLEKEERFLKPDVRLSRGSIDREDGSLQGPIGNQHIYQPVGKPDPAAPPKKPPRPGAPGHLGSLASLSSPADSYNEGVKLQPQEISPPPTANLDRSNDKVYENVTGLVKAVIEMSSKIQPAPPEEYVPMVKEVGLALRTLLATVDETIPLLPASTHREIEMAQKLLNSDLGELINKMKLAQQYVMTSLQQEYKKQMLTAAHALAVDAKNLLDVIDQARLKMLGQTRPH
smiles,measurement,setting,value
"Nc1ccn(C2OC(CO)C(O)C2(F)F)c(=O)n1 (centres unmarked) [Gemcitabine, 4-amino-1-[3,3-difluoro-4-hydroxy-5-(hydroxymethyl)tetrahydrofuran-2-yl]-1H-pyrimidin-2-one]",IC50,"Panc-1; Panc-1, gemcitabine monotherapy, read-out: IC50 (resistance)",> 2500 µM
same,IC50,Panc-1; [5],> 10 µM
same,down-regulated genes,Mia Paca-2 cells [1],113 genes
same,up-regulated genes,Mia Paca-2 cells [1],1048 genes
same,deregulated genes,Mia Paca-2 cells [1],1161 genes
same,deregulated genes specific to the treatment,Mia Paca-2 cells [1],818 genes
same,IC50,"Mia Paca-2; Mia Paca-2, gemcitabine monotherapy, read-out: IC50 (resistance)",> 2500 µM
same,IC50,Mia Paca-2; [6],> 10 µM
same,IC50,Capan-2; 72 hours,2 µM
same,IC50,"Capan-2; Homo sapiens, Capan-2, 72 h",2 to 20 µM
same,medium TTP,"pancreatic cancer; Burris et al. 1997, advanced pancreatic population (locally advanced and metastatic)",2.33 months
same,TTP threshold,"pancreatic cancer; Storniolo et al. 1999, solely locally advanced patients",4.1 months
same,1-year survival rate,"pancreatic cancer; clinical trial of erlotinib plus gemcitabine versus gemcitabine monotherapy, p=0.023",17%
same,median OS,pancreatic cancer; clinical trial of erlotinib plus gemcitabine versus gemcitabine monotherapy,5.91 months
same,"12-month survival rates, published",pancreatic cancer; comparison,21%
same,"median OS, published",pancreatic cancer; comparison,6 months
same,1-year survival rate,pancreatic cancer; standard gemcitabine therapy,21%
same,median overall survival (OS),"pancreatic cancer; standard gemcitabine therapy, locally advanced, unresectable, or metastatic pancreatic adenocarcinoma",6 months
same,tumour growth between day 35 and 49,[2]; FIG. 3,stabilization of tumour growth
same,"Tumour volume, Median",[2],662* mm^3
same,IC50,BxPC-3; 72 hours,2 to 20 µM
Cc1nc(Nc2ncc(C(=O)Nc3c(C)cccc3Cl)s2)cc(N2CCN(CCO)CC2)n1 [dasatinib],cells remaining resistant,"Mia Paca-2; Mia Paca-2, dasatinib alone >0.1 μM",< 50%
"Cc1ccc(NC(=O)c2ccc(CN3CCN(C)CC3)cc2)cc1Nc1nc(-c2cccnc2)cs1 [Masitinib, 4-(4-methylpiperazin-1-ylmethyl)-N-[4-methyl-3-(4-pyridin-3ylthiazol-2-ylamino)phenyl]benzamide]",FAK auto-activation,FAK,partially inhibits FAK auto-activation
same,reduces FAK activity,FAK; masitinib 1 μM,21%
same,IC50,Panc-1; [5],5 to 10 µM
same,down-regulated genes,Mia Paca-2 cells [1],29 genes
same,up-regulated genes,Mia Paca-2 cells [1],325 genes
same,deregulated genes,Mia Paca-2 cells [1],354 genes
same,deregulated genes specific to the treatment,Mia Paca-2 cells [1],201 genes
same,response of Mia Paca-2 cells to gemcitabine after pre-incubation with TKI,Mia Paca-2,able to restore sensitivity to gemcitabine
same,IC50,Mia Paca-2; [6],5 to 10 µM
same,protein tyrosine phosphorylation (western blot),Mia Paca-2 cells [3],clearly inhibited tyrosine phosphorylation
same,IC50,"Capan-2; Homo sapiens, Capan-2, 72 h",5 to 10 µM
same,half-life,[4],17 h
same,"Tumour volume, Median",[2],865 mm^3
same,IC50,"BxPC-3; Homo sapiens, BXPC-3, 72 h",5 to 10 µM
Cc1ccc(NC(=O)c2ccc(CN3CCN(C)CC3)cc2)cc1Nc1nccc(-c2cccnc2)n1 [imatinib],response of Mia Paca-2 cells to gemcitabine after pre-incubation with TKI,Mia Paca-2,did not result in an increased response
same,"Mia Paca-2 cell proliferation, TKI alone",Mia Paca-2; imatinib alone 10 μM,not inhibited
